Measured values reported in US10294229B2, “Heteroaryl substituted aminopyridine compounds” (BRISTOL-MYERS SQUIBB COMPANY, priority 2015, dated 2019).

Columns and labels:
[1] = system: Human whole blood stimulated with a TLR2 agonist (lipoteichoic acid), IL-6 levels; experiment: IRAK4 Whole Blood Assay; format: cell-based; conditions: lipoteichoic acid 10 μg/mL
Experimental: Human whole blood containing the anti-coagulant ACD-A was plated in 384-well plate (25 μL/well) and incubated with compounds for 60 minutes at 37° C. in a 5% CO2 incubator. The blood was stimulated with a TLR2 agonist, 10 μg/mL final concentration of lipoteichoic acid (Invivogen, San Diego, Calif.) in 25 μL RPMI (Gibco) for 5 hours in a 5% CO2 incubator. At the end of the incubation, plates were centrifuged at 2300 rpm for 5 minutes. Supernatants were harvested and analyzed for IL-6 levels by Flow Cytometry beads assay (BD Biosciences, San Jose, Calif.).

[2] = molecular target: IRAK4 (Homo sapiens (Human), UniProt Q9NWZ3); experiment: IRAK4 Inhibition Assay; format: biochemical; conditions: ATP 500 μM; IRAK4 0.6 nM
Summary of the method: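 Mobility-shift kinase assay: 0.6 nM IRAK4, 500 μM ATP, 1.5 μM fluorescent peptide, 60 min, room temperature. Percent inhibition was normalised between enzyme-free and DMSO-only wells.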

Sequence of IRAK4 (Q9NWZ3 whole entry, species assumed): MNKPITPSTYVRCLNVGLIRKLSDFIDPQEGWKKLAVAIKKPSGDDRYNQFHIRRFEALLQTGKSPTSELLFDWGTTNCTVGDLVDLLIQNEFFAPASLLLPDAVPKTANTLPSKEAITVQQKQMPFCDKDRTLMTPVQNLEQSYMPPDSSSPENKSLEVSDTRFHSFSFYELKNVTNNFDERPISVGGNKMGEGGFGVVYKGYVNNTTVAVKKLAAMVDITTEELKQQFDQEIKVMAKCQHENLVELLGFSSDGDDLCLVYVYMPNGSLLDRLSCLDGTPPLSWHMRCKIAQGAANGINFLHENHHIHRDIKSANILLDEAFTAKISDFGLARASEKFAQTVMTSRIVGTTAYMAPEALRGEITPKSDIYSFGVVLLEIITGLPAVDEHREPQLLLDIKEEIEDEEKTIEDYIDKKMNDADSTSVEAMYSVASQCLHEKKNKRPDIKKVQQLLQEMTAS

EC50 [1] [µM] | IC50 [2] [µM] | EC50 ([1]; Homo sapiens) [µM] | SMILES
0.71 | 0.006 | – | CC(C)Nc1cc(-n2ncc3cc(C#N)cnc32)ncc1-c1cn([C@@H]2CCN(S(C)(=O)=O)C[C@H]2O)nn1 (single isomer, unassigned) [Example 204]
– | 0.005 | 0.41 | CC(O)Cc1cn(-c2cnc(-n3ncc4cc(C#N)cnc43)cc2NC(C)C)nn1 (single isomer, unassigned) [Example 265, 1-(5-(4-(2-hydroxypropyl)-1H-1,2,3-triazol-1-yl)-4-(isopropylamino)pyridin-2-yl)-1H-pyrazolo[3,4-b]pyridine-5-carbonitrile]
– | 0.014 | 0.85 | CC(F)Cc1cn(-c2cnc(-n3cnc4cc(C#N)cnc43)cc2NC(C)C)nn1 (single isomer, unassigned) [Example 291, 3-(5-(4-(2-fluoropropyl)-1H-1,2,3-triazol-1-yl)-4-(isopropylamino)pyridin-2-yl)-3H-imidazo[4,5-b]pyridine-6-carbonitrile]
1.03 | 0.007 | – | CC(F)Cn1cc(-c2cnc(-n3ncc4cc(C#N)cnc43)cc2NC(C)C)nn1 (single isomer, unassigned; enantiomer 2) [Example 167, 1-(5-(1-(2-fluoropropyl)-1H-1,2,3-triazol-4-yl)-4-(isopropylamino)pyridin-2-yl)-1H-pyrazolo[3,4-b]pyridine-5-carbonitrile, enantiomer 2]
– | 0.007 | 0.83 | CC(C)Nc1cc(-n2ccc3cncnc32)ncc1-c1cn(CCO)nn1 [Example 1, 2-(4-(4-(isopropylamino)-6-(7H-pyrrolo[2,3-d]pyrimidin-7-yl)pyridin-3-yl)-1H-1,2,3-triazol-1-yl)ethanol]
– | 0.001 | 10 | CCOC(=O)Cn1cc(-c2cnc(-n3ccc4cncnc43)cc2NC(C)C)nn1 [Example 2, ethyl 2-(4-(4-(isopropylamino)-6-(7H-pyrrolo[2,3-d]pyrimidin-7-yl)pyridin-3-yl)-1H-1,2,3-triazol-1-yl)acetate]
– | 0.003 | 2.13 | CC(C)Nc1cc(-n2ccc3cncnc32)ncc1-c1cn(CCCCCN)nn1 [Example 5, 5-(1-(5-aminopentyl)-1H-1,2,3-triazol-4-yl)-N-isopropyl-2-(7H-pyrrolo[2,3-d]pyrimidin-7-yl)pyridin-4-amine]
– | 0.005 | 1.97 | CC(C)Nc1cc(-n2ncc3cc(C#N)cnc32)ncc1-c1cn(C2CCCCC2)nn1 [Example 17, 1-(5-(1-cyclohexyl-1H-1,2,3-triazol-4-yl)-4-(isopropylamino)pyridin-2-yl)-1H-pyrazolo[3,4-b]pyridine-5-carbonitrile]
– | 0.007 | 20 | CC(C)Nc1cc(-n2ncc3cc(C#N)cnc32)ncc1-c1cn(-c2ccccc2F)nn1 [Example 20, 1-(5-(1-(2-fluorophenyl)-1H-1,2,3-triazol-4-yl)-4-(isopropylamino)pyridin-2-yl)-1H-pyrazolo [3,4-b]pyridine-5-carbonitrile]
0.49 | 0.004 | – | CC(C)Nc1cc(-n2ncc3cc(C#N)cnc32)ncc1-c1cn(C2CCN(C)C2=O)nn1 (stereo not drawn) [Example 22, 1-(4-(isopropylamino)-5-(1-(1-methyl-2-oxopyrrolidin-3-yl)-1H-1,2,3-triazol-4-yl)pyridin-2-yl)-1H-pyrazolo[3,4-b]pyridine-5-carbonitrile]
– | 0.006 | 1.91 | CC(C)Nc1cc(-n2ncc3cc(C#N)cnc32)ncc1-c1cn(CCCO)nn1 [Example 28, 1-(5-(1-(3-hydroxypropyl)-1H-1,2,3-triazol-4-yl)-4-(isopropylamino)pyridin-2-yl)-1H-pyrazolo [3,4-b]pyridine-5-carbonitrile]
– | 0.014 | 4.3 | CCn1cc(-c2cnc(-n3ncc4cc(Cl)cnc43)cc2NC(C)C)nn1 [Example 39, 2-(5-chloro-1H-pyrazolo[3,4-b]pyridin-1-yl)-5-(1-ethyl-1H-1,2,3-triazol-4-yl)-N-isopropylpyridin-4-amine]
– | 0.007 | 0.63 | CC(C)Nc1cc(-n2ncc3cc(C#N)cnc32)ncc1-c1cn(CCCF)nn1 [Example 44, 1-(5-(1-(3-fluoropropyl)-1H-1,2,3-triazol-4-yl)-4-(isopropylamino)pyridin-2-yl)-1H-pyrazolo [3,4-b]pyridine-5-carbonitrile]
– | 0.014 | 0.49 | CC(C)Nc1cc(-n2ncc3cc(C#N)c(N)nc32)ncc1-c1cn(CCCF)nn1 [Example 46, 6-amino-1-(5-(1-(3-fluoropropyl)-1H-1,2,3-triazol-4-yl)-4-(isopropylamino)pyridin-2-yl)-1H-pyrazolo[3,4-b]pyridine-5-carbonitrile]
– | 0.003 | 0.61 | CC(C)Nc1cc(-n2cnc3cc(C#N)cnc32)ncc1-c1cn(CCc2ccccc2)nn1 [Example 57, 3-(4-(isopropylamino)-5-(1-phenethyl-1H-1,2,3-triazol-4-yl)pyridin-2-yl)-3H-imidazo[4,5-b]pyridine-6-carbonitrile]
– | 0.009 | 0.42 | CC(C)Nc1cc(-n2ncc3cc(C#N)cnc32)ncc1-c1cn(C[C@H](C)O)nn1 [Example 65, (S)-1-(5-(1-(2-hydroxypropyl)-1H-1,2,3-triazol-4-yl)-4-(isopropylamino)pyridin-2-yl)-1H-pyrazolo[3,4-b]pyridine-5-carbonitrile]
– | 0.01 | 1.37 | CC(C)Nc1cc(-n2cnc3cc(C#N)cnc32)ncc1-c1cn(C[C@H](C)O)nn1 [Example 69, (S)-3-(5-(1-(2-hydroxypropyl)-1H-1,2,3-triazol-4-yl)-4-(isopropylamino)pyridin-2-yl)-3H-imidazo[4,5-b]pyridine-6-carbonitrile]
– | 0.005 | 3.96 | CC(C)Nc1cc(-n2ncc3cc(C#N)c(N)nc32)ncc1-c1cn(C[C@H](C)O)nn1 [Example 70, (S)-6-amino-1-(5-(1-(2-hydroxypropyl)-1H-1,2,3-triazol-4-yl)-4-(isopropylamino)pyridin-2-yl)-1H-pyrazolo[3,4-b]pyridine-5-carbonitrile]
– | 0.005 | 0.53 | CC(C)Nc1cc(-n2ncc3cc(C#N)cnc32)ncc1-c1cn(C[C@@H](O)c2ccccc2)nn1 [Example 84, (S)-1-(5-(1-(2-hydroxy-2-phenylethyl)-1H-1,2,3-triazol-4-yl)-4-(isopropylamino)pyridin-2-yl)-1H-pyrazolo[3,4-b]pyridine-5-carbonitrile]
– | 0.018 | 1.77 | CC(C)Nc1cc(-n2ncc3cc(C#N)cnc32)ncc1-c1cn([C@@H](CO)c2ccccc2)nn1 [Example 86, (R)-1-(5-(1-(2-hydroxy-1-phenylethyl)-1H-1,2,3-triazol-4-yl)-4-(isopropylamino)pyridin-2-yl)-1H-pyrazolo[3,4-b]pyridine-5-carbonitrile]
– | 0.009 | 4.53 | CC(C)Nc1cc(-n2ncc3cc(C#N)cnc32)ncc1-c1cn([C@H](CO)c2ccccc2)nn1 [Example 87, (S)-1-(5-(1-(2-hydroxy-1-phenylethyl)-1H-1,2,3-triazol-4-yl)-4-(isopropylamino)pyridin-2-yl)-1H-pyrazolo[3,4-b]pyridine-5-carbonitrile]
– | 0.008 | 3.37 | CC(C)Nc1cc(-n2ncc3cc(C#N)cnc32)ncc1-c1cn(C[C@H]2CCCN2C(=O)OC(C)(C)C)nn1 [Example 99, (R)-tert-butyl 2-((4-(6-(5-cyano-1H-pyrazolo[3,4-b]pyridin-1-yl)-4-(isopropylamino)pyridin-3-yl)-1H-1,2,3-triazol-1-yl)methyl)pyrrolidine-1-carboxylate]
– | 0.013 | 1.86 | CC(C)Nc1cc(-n2ncc3cc(C#N)cnc32)ncc1-c1cn(C2CN(C(=O)OC(C)(C)C)C2)nn1 [Example 113, tert-butyl 3-(4-(6-(5-cyano-1H-pyrazolo [3,4-b]pyridin-1-yl)-4-(isopropylamino)pyridin-3-yl)-1H-1,2,3-triazol-1-yl)azetidine-1-carboxylate]
– | 0.003 | 0.87 | CC(C)Nc1cc(-n2ncc3cc(C#N)cnc32)ncc1-c1cn(CCCCCN)nn1 [Example 114, 1-(5-(1-(5-aminopentyl)-1H-1,2,3-triazol-4-yl)-4-(isopropylamino)pyridin-2-yl)-1H-pyrazolo[3,4-b]pyridine-5-carbonitrile]
– | 0.003 | 0.21 | CC(C)Nc1cc(-n2ncc3cc(C#N)cnc32)ncc1-c1cn(CCS(C)(=O)=O)nn1 [Example 116, 1-(4-(isopropylamino)-5-(1-(2-(methylsulfonyl)ethyl)-1H-1,2,3-triazol-4-yl)pyridin-2-yl)-1H-pyrazolo[3,4-b]pyridine-5-carbonitrile]
– | 0.003 | 1.09 | CC(C)Nc1cc(-n2ncc3cc(C#N)cnc32)ncc1-c1cn(CCc2ccccn2)nn1 [Example 118, 1-(4-(isopropylamino)-5-(1-(2-(pyridin-2-yl)ethyl)-1H-1,2,3-triazol-4-yl)pyridin-2-yl)-1H-pyrazolo[3,4-b]pyridine-5-carbonitrile]
– | 0.006 | 1.74 | COCCn1cc(-c2cnc(-n3ncc4cc(C#N)cnc43)cc2NC(C)C)nn1 [Example 121, 1-(4-(isopropylamino)-5-(1-(2-methoxyethyl)-1H-1,2,3-triazol-4-yl)pyridin-2-yl)-1H-pyrazolo[3,4-b]pyridine-5-carbonitrile]
